Assay results: patent EP3693740A1, “IMPROVED DITHIOCARMABATE BASED COMPOUNDS, THERAPIES AND DIAGNOSTICS” (Deutsches Krebsforschungszentrum, Stiftung des öffentlichen …, priority 2019, dated 2020)

Experiments:
SCLC cell line H209 = assay: Induction of apoptotic cell death; type: cell-based
Text: Treatment with DKFZ-608 caused morphological changes of the nucleus reminiscent of apoptosis (Figure 1A). […] The inventors then investigated the possible involvement of apoptotic mechanisms in the SCLC cell line H209. […] It was also investigated whether alternative cell death mechanisms like ferroptosis, necroptosis or entosis contribute to the cytotoxicity of DKFZ-608 on SCLC. Inhibitors of those cell death programs were, however, not able to desensitize SCLC cells.

TRXR1 [1] = target: T1, TRXR1 (Homo sapiens, UniProt Q16881)
T1 sequence (Q16881 151-649 limits assumed): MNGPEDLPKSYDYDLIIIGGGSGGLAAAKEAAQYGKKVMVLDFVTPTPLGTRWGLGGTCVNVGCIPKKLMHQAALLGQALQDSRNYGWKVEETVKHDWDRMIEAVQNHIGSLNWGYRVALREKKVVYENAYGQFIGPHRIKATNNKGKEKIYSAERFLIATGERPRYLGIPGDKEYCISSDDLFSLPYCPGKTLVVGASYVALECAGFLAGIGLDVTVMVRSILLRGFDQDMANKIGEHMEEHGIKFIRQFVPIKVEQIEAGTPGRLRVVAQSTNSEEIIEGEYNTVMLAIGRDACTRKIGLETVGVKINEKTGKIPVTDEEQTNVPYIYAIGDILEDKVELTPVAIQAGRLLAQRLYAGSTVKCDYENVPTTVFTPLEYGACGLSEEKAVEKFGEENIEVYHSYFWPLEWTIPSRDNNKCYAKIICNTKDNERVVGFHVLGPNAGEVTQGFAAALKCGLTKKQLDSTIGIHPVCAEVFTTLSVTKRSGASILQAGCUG

SCLC = SCLC animal model, residual tumour cells after first line therapy; type: in vivo
Text: In context of the herein disclosed invention it was discovered, that thioredoxin reductase 1 (TRXR1), when inhibited competitively, is a promising drug target for SCLC. DKFZ-608, a homoleptic dithiocarbamate gold complex, reversibly binds TRXR1 in competition with the TRXR1 substrate thioredoxin-1 (TRX1). Consequently, cells expressing low levels of TRX1, like SCLC, are hypersensitive to DKFZ-608, while cells, which express higher levels of TRX1, are resistant. DKFZ-608 causes oxidative stress in the cytoplasm, but not in mitochondria, further contributing to its low toxicity profile.

[2] = target: truncated form of TRXR1, lacking the Sec (TRXR1ΔSec) (Homo sapiens, UniProt Q16881)
truncated form of TRXR1, lacking the Sec (TRXR1ΔSec), sequence (Q16881 151-647 limits assumed, stated change not applied): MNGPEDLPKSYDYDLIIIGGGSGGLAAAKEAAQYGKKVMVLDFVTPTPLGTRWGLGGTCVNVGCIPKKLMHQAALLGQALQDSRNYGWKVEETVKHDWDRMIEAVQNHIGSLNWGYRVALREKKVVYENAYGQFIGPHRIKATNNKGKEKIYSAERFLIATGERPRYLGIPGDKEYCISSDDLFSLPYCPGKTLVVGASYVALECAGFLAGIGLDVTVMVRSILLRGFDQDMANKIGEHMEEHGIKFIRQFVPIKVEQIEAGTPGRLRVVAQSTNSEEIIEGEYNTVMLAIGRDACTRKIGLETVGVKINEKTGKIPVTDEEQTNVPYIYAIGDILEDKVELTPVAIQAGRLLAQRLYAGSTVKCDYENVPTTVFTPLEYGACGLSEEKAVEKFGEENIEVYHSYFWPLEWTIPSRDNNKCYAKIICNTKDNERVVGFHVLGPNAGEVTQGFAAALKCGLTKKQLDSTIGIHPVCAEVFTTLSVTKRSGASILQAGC
Text: The present invention will now be further described in the following examples with reference to the accompanying figures and sequences, nevertheless, without being limited thereto. For the purposes of the present invention, all references as cited herein are incorporated by reference in their entireties.

TRXR1 [3] = target: T1, TRXR1; remark: listed apart in the source
[4] = test system: peroxides (most likely H2O2); assay: Peroxide quantification with ROS Glo probe (boronate-caged luciferin precursor); type: cell-based
Text: Gold(I) complexes have been previously reported to induce pro-oxidative effects in tumour cells.

roGFP2-Orp1 = assay: Oxidation of the genetically encoded H2O2 probe roGFP2-Orp1 (cytoplasmic and mitochondrial); type: cell-based; details: for reversibility of probe oxidation: concentrations below the EC50 of DKFZ-608
TRXR1 [5] = target: T1, TRXR1; details: inhibitors pre-incubated with TRXR1 before addition of TRX1
Text: The mode of inhibition was further characterized by investigating the effect of substrate competition.

TRXR1 [6] = target: T1, TRXR1; remark: listed apart in the source

Row | SMILES | cytotoxic effect in presence of pan-Caspase inhibitor (SCLC cell line H209; H209) | Annexin-V positive cells and late apoptotic cells (SCLC cell line H209; data not shown) | enzymatic activity after dilution of a sample containing TRXR1 and a high concentration of inhibitor (TRXR1 [1]) | tumour recurrence (SCLC) | inhibition of TRXR1ΔSec [2] | TRXR1 inhibition in cells (TRXR1 [3]; H209 versus A549, TRXR1 inhibition after 100min) | dose response curves upon induced overexpression of TRX1 (TRXR1 [3]; SCLC line H69) | increase of peroxides [4] | reversibility of probe oxidation (roGFP2-Orp1) | oxidation of the mitochondrial roGFP2-Orp1 probe (roGFP2-Orp1) | effect of increasing amounts of TRX1 on enzyme inhibition (TRXR1 [5]) | effect of DTNB substrate increase on dose response curve (TRXR1 [6])
1 | CCN(CC)C1=[S+][Au-][S]C(N(CC)CC)=[S+][Au-][S]1 [DKFZ-608] | could be reverted by the pan-Caspase inhibitor z-VAD-FMK | increases the amount of Annexin-V positive cells and late apoptotic cells | resulted in recovery of enzymatic activity | completely prevents tumour recurrence | not inhibited | more potent inhibition of TRXR1 in the SCLC line H209 as compared to the NSCLC line A549 | rightshift of the dose response curves of cytotoxicity and TRXR1 inhibition | induced fast and strong increase of peroxides | appears to be reversible | did not cause oxidation of the mitochondrial probe | increasing amounts of TRX1 reduced enzyme inhibition | right-shift of the dose response curve
2 | CC[P+](CC)(CC)[Au-][S][C@@H]1O[C@H](COC(C)=O)[C@@H](OC(C)=O)[C@H](OC(C)=O)[C@H]1OC(C)=O [auranofin, reference compound] |  |  | this was not the case |  | able to repress the activity of the truncated enzyme, although to a lesser extent |  |  | induced fast and strong increase of peroxides | remains stable | produces the same fast and pronounced increase in probe oxidation as in the cytoplasm | an effect not observed | showed no affect with increasing DTNB concentrations
